Source: patent US7977366B2, “Treating an inflammatory disorder or inhibiting respiratory burst in adherent neutrophils with chemical inhibitors of neutrophil activation” (Cornell Research Foundation, Inc., priority 2003, dated 2011)

System: human neutrophils
Assay: TNF-triggered H2O2 release (respiratory burst) by adherent human neutrophils
Format: cell-based
Method: Contaminating erythrocytes were lysed by hypotonic shock for 45 seconds with 0.2% saline.
Briefly, 15,000 compounds were screened to identify specific inhibitors of TNF-triggered H2O2 release in human neutrophils. H2O2 release was measured as above except a few modifications to adapt to high throughput screening. […] Percent inhibition by each compound was calculated using the formula: […]
Briefly, 96-well flat-bottomed plates (Primaria, Falcon) were coated with 50 μl/well of FBS in 5% CO2 at 37° C. for at least 1 h and washed three times with 0.9% saline. Neutrophils (1.5×10^4) were added to triplicate wells containing 100 μl of reaction mixture (2.4 nm scopoletin, 0.5 μg horseradish peroxidase (HRP), and 1 mM NaN3) and stimulated with either buffer control, TNF (PreproTech, London, UK) or phorbol myristate acetate (PMA), each at 100 ng/ml. […] The supernatant from the H2O2 release assay with 1.5×10^4 neutrophils was used to measure degranulation using lactoferrin (LF) or myeloperoxidase (MPO) ELISA kit (Oxis International, Inc., Portland, Oreg.). Spontaneous cell death from the same supernatant was measured using Cytotoxicity Detection Kit (Roche Molecular Biochemicals, Nutley, N.J.). The total cell content of LF, MPO, and lactate dehydrogenase (LDH) was determined after lysing cells with 1% Triton X100. LDH is a cytosolic enzyme whose release indicates cell lysis, such that high release of LF or MPO in the face of low release of LDH is taken as a measure of degranulation.

IC50 (Homo sapiens, Neutrophil, 1.5 h, TNF 100 ng/ml, H2O2 release at 90 min, read-out: IC50, TNF triggered H2O2 release): 22 nM
SMILES: CC1=NN(c2ccccc2)C(=O)/C1=C\Nc1cccc2ccc(C)nc12 [Comp II′]
Concentration that consistently yielded over 95% inhibition on TNF triggered RB (empirically decided for each compound): 1 µM
